Here are results for 23 compounds from patent publication US20120016155A1, “DIASTEREOISOMERS OF HYPOPHOSPHOROUS ACID DERIVATIVES” (priority 2009, published 2012).

Format in all cases: cell-based
One test addresses mGlu8 (Homo sapiens, UniProt O00222). The test can be described thus: Activities on metabotropic glutamate receptor 8 (EC50; readout marked IP or by a symbol). From the text: (§1) Activities on Metabotropic Glutamate Receptors 4, 8, 6 and 7.
(§2) Nitrobenzyl PCEP Derivatives

The next test concerns the target mGlu7 (Homo sapiens, UniProt Q14831). The test can be described thus: Activities on metabotropic glutamate receptor 7 (EC50; readout marked IP or by a symbol). The note with it: mean ± spread (n), read-out: mG1u7 EC50 μM (n) (converted).
Source text: as §1, §2

A further test concerns the target mGlu6 (Homo sapiens, UniProt O15303). The test can be described thus: Activities on metabotropic glutamate receptor 6 (EC50; readout marked IP or by a symbol). The note with it: mean ± spread (n), read-out: mG1u6 EC50 μM (n) (converted).
Source text: as §1, §2

Another test has as its target mGlu4 (Homo sapiens, UniProt Q14833). The test can be described thus: Activities on metabotropic glutamate receptor 4 (EC50; readout marked IP or by a symbol). The settings on record: for mGlu8/4 EC50 ratio: ratio of mGlu8 EC50 to mGlu4 EC50, one per pair of values (readout/batch).
Source text: as §1, §2

Setting [1] is: values marked IP, mean ± spread (n).
[2] abbreviates: values marked with an image symbol (second readout, not IP).
Where [3] appears, read: values marked with an image symbol (second readout, not IP), mean ± spread (n).

Structures can show the parent of a compound that is named as a salt. Where two headings read alike, the source gives them in different places.

mGlu8, sequence (O00222 34-908): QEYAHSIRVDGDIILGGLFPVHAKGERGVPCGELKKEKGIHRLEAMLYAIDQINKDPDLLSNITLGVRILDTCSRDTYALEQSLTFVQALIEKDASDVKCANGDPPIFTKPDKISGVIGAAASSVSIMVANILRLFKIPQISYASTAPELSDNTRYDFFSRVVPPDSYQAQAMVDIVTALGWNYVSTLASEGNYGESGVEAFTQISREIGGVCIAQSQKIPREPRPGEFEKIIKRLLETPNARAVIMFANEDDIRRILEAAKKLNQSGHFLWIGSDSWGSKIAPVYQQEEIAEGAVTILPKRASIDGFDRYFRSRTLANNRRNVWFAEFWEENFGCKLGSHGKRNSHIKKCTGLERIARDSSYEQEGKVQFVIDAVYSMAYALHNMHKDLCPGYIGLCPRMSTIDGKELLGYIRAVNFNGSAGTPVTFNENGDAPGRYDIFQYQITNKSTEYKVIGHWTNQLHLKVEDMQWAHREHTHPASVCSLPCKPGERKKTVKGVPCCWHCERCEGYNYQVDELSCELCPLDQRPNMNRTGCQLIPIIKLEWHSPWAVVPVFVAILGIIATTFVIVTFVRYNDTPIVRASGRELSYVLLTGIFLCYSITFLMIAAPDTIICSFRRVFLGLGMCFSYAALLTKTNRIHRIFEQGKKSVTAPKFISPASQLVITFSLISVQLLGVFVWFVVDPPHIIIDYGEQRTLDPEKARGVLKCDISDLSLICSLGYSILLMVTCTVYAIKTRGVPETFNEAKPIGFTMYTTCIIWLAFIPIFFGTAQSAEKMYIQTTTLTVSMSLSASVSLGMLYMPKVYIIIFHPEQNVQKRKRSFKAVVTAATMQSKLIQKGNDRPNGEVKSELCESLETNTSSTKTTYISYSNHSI
mGlu4, sequence (Q14833 33-912): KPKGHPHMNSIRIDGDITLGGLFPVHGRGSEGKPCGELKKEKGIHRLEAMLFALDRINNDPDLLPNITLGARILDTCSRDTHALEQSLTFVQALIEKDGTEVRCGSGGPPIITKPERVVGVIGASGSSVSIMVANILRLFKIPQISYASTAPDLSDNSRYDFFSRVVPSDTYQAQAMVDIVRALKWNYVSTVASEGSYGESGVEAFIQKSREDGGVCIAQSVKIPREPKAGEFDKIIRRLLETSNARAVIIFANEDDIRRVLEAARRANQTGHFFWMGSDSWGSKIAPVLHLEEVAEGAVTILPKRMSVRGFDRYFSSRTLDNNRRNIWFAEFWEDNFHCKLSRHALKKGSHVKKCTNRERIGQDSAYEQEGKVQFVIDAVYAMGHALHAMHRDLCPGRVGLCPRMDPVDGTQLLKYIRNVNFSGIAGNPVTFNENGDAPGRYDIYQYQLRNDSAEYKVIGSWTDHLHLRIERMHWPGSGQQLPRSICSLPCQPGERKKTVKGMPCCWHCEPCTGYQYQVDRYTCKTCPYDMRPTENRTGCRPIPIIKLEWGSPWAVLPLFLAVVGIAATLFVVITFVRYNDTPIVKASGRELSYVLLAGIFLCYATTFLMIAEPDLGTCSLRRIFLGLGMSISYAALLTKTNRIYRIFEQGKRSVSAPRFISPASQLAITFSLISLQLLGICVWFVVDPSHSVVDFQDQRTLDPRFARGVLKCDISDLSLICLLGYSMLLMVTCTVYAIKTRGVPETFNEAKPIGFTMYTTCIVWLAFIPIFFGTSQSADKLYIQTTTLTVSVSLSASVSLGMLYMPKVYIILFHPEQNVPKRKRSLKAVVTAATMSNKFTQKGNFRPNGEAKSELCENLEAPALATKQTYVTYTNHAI
mGlu7, sequence (Q14831 35-915): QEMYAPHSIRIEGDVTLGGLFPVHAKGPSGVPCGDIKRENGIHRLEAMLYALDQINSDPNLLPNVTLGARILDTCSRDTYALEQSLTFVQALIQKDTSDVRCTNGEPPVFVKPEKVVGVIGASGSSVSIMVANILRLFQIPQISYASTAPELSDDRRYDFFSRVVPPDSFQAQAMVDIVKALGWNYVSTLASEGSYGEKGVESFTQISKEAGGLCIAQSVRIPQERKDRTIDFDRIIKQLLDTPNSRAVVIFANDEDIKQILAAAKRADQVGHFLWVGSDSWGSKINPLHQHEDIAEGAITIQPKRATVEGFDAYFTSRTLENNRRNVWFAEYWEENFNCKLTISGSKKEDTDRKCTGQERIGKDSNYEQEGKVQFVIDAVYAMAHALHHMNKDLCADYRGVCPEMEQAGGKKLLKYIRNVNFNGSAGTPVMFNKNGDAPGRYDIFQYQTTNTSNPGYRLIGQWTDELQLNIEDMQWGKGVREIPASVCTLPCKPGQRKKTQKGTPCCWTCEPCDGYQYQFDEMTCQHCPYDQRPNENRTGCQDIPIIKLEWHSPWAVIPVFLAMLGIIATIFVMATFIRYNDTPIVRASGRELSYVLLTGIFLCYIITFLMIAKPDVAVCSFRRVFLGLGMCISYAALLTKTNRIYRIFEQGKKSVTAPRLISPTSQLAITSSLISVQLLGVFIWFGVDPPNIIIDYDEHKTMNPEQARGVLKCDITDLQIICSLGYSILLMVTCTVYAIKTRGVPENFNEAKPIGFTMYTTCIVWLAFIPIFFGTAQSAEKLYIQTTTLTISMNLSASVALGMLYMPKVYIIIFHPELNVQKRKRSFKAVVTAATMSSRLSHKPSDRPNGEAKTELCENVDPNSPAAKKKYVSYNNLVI
mGlu6, sequence (O15303 25-877): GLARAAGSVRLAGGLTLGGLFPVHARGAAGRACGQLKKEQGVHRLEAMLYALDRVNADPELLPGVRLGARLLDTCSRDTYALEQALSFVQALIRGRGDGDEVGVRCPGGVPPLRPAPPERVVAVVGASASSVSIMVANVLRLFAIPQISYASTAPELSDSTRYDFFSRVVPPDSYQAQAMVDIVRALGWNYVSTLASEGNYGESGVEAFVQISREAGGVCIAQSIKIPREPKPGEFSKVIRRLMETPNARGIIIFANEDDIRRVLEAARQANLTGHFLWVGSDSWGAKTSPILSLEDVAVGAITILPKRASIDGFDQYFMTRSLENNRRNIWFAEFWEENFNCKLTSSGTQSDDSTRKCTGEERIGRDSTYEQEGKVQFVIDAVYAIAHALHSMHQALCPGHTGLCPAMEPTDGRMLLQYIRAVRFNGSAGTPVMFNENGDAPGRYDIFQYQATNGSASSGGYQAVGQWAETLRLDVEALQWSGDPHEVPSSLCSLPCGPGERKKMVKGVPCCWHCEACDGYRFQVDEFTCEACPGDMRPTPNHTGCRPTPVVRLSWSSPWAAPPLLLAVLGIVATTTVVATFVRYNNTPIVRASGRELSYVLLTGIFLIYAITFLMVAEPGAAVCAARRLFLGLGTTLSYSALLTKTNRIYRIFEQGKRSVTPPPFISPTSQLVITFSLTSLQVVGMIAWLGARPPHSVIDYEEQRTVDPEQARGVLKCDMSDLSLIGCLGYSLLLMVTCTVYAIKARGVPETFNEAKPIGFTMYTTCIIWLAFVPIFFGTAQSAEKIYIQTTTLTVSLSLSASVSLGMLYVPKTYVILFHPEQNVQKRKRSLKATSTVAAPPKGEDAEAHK

One may read the EC50 as the concentration needed to bring the measured effect to its halfway point. Take `N[C@@H](CCP(=O)(O)C(O)c1cccc([N+](=O)[O-])c1)C(=O)O` (mixture of isomers) [LSP1-2093, (3S)-3-[(((3-ammonium-3-carboxy)propyl)(hydroxy)phosphinyl)-hydroxymethyl]3-nitrobenzene]: the 50% effective concentration (EC50) is 1.5 ± 0.5 µM on mGlu8 (setting [1]), over 1000 µM at mGlu7 (values marked IP) and 8.8 ± 0.7 µM at mGlu6 (values marked IP).

On to `COc1cc(C(O)P(=O)(O)CC[C@H](N)C(=O)O)cc([N+](=O)[O-])c1O` (mixture of isomers) [LSP1-2111, (3S)-3-[(((3-ammonium-3-carboxy)propyl)(hydroxy)phosphinyl)-hydroxymethyl]4-hydroxy-5-methoxy-3-nitrobenzene], for which the concentration for a half-maximal effect (EC50) was 113 µM at mGlu8 (value printed without readout mark, read-out: mGlu8 EC50 μM (n) (converted)); 66 ± 12 µM on mGlu8 (setting [1]); 1.5 µM on mGlu4 (value printed without readout mark, read-out: mGlu4 EC50 μM (n) (converted)); 2.2 ± 0.3 µM on mGlu4 (setting [1]); 53 ± 20 µM on mGlu7 (values marked IP); 101 µM at mGlu7 (setting [2]). Moreover, the EC50 at mGlu6 (values marked IP) is 1.7 ± 0.1 µM; on mGlu6 (setting [2]) it was 3.18 µM.

Turning to `CCOc1cc(C(O)P(=O)(O)CC[C@H](N)C(=O)O)cc([N+](=O)[O-])c1O` (mixture of isomers) [LSP3-1145, (3S)-3-[(((3-ammonium-3-carboxy)propyl)(hydroxy)phosphinyl)-hydroxymethyl]4-hydroxy-5-ethoxy-3-nitrobenzene], the EC50 was determined as 27 ± 20 µM at mGlu8 (setting [3]) and 8.5 ± 1.1 µM at mGlu4 (setting [3]). On mGlu4, the “mGlu8/4 EC50 ratio” value amounted to 3.1.

Regarding `COc1ccc(C(O)P(=O)(O)CC[C@H](N)C(=O)O)cc1[N+](=O)[O-]` (single isomer, unassigned) [LSP2-6146-I, hydrochloride], the EC50 at mGlu8 (setting [3]) is 2.5 ± 0.8 µM; at mGlu4 (setting [3]), 2 ± 0.4 µM. At mGlu4 (hydrochloride), the “mGlu8/4 EC50 ratio” value was determined as 1.2.

Turning to `COc1ccc(C(O)P(=O)(O)CC[C@H](N)C(=O)O)cc1[N+](=O)[O-]` (single isomer, unassigned) [LSP2-6146-II, hydrochloride], the results for the EC50 on mGlu8 (setting [3]) and at mGlu4 (setting [3]) were 2.2 ± 0.6 µM and 1.7 ± 0.6 µM, respectively. The “mGlu8/4 EC50 ratio” value on mGlu4 is 1.3.

Take `NC(CCP(=O)(O)C(O)c1cccc([N+](=O)[O-])c1)C(=O)O` (single isomer, unassigned) [LSP3-1098-I, hydrochloride]: the EC50 was 1.25 ± 0.3 µM at mGlu8 (setting [3]) and 1 ± 0.4 µM on mGlu4 (setting [3]).

`NC(CCP(=O)(O)C(O)c1cccc([N+](=O)[O-])c1)C(=O)O` (single isomer, unassigned) [LSP3-1098-II, hydrochloride]: the EC50 on mGlu8 (setting [3]) amounted to 1.3 ± 0.5 µM; on mGlu4 (setting [3]) it was 0.9 ± 0.4 µM.

Regarding `COc1cc(C(O)P(=O)(O)CC[C@H](N)C(=O)O)cc([N+](=O)[O-])c1O` (single isomer, unassigned) [LSP3-1101-I, hydrochloride], the EC50 at mGlu8 (setting [3]) is 23 ± 6 µM; at mGlu4 (setting [3]) it was 0.74 ± 0.09 µM; on mGlu7 (setting [2]), 63 ± 35 µM; at mGlu6 (setting [2]), 1.11 ± 0.41 µM. On mGlu4 (hydrochloride), the “mGlu8/4 EC50 ratio” value was determined as 31.

`COc1cc(C(O)P(=O)(O)CC[C@H](N)C(=O)O)cc([N+](=O)[O-])c1O` (single isomer, unassigned) [LSP3-1101-II, hydrochloride]: the EC50 at mGlu8 (setting [3]) is 27 ± 14 µM; on mGlu4 (setting [3]) it was 4.7 ± 0.4 µM; on mGlu7 (setting [2]), 100 ± 49 µM; at mGlu6 (setting [2]) it was 2.36 ± 0.77 µM. The “mGlu8/4 EC50 ratio” value at mGlu4 is reported as 5.9.

As to `CCOc1cc(C(O)P(=O)(O)CC[C@H](N)C(=O)O)cc([N+](=O)[O-])c1O` (single isomer, unassigned) [LSP3-1143-I, hydrochloride], the EC50 amounted to 33 ± 31 µM on mGlu8 (setting [3]) and 5.1 ± 1.2 µM at mGlu4 (setting [3]). In addition, the “mGlu8/4 EC50 ratio” value on mGlu4 (hydrochloride) came to 6.5.

As to `CCOc1cc(C(O)P(=O)(O)CC[C@H](N)C(=O)O)cc([N+](=O)[O-])c1O` (single isomer, unassigned) [LSP3-1143-II, hydrochloride], the EC50 worked out at 9.2 ± 2.6 µM at mGlu8 (setting [3]) and 6.4 ± 2.4 µM on mGlu4 (setting [3]). Also, at mGlu4, the “mGlu8/4 EC50 ratio” value came out at 1.4.

Regarding `N[C@@H](CCP(=O)(O)C(O)c1ccc(O)c([N+](=O)[O-])c1)C(=O)O` (single isomer, unassigned) [LSP3-2074-I, hydrochloride], the EC50 at mGlu8 (setting [3]) was 31.5 ± 8.6 µM; on mGlu4 (setting [3]), 0.5 ± 0.07 µM; at mGlu7 (setting [2]), 62 ± 26 µM; on mGlu6 (setting [2]), 3.9 ± 1.7 µM. On mGlu4 (hydrochloride), the “mGlu8/4 EC50 ratio” value is 63.

As for `Cl.N[C@@H](CCP(=O)(O)C(O)c1ccc(O)c([N+](=O)[O-])c1)C(=O)O` (single isomer, unassigned) [LSP3-2074-II, hydrochloride], the EC50 at mGlu8 (setting [3]) was 39.8 ± 6.5 µM; on mGlu4 (setting [3]), 4.5 ± 0.2 µM; on mGlu7 (setting [2]), 295 ± 178 µM; at mGlu6 (setting [2]) it was 68.4 ± 14.5 µM.

In the case of `Cl.N[C@@H](CCP(=O)(O)C(O)c1ccc(O)c([N+](=O)[O-])c1)C(=O)O` (single isomer, unassigned) [LSP3-2074-II], the “mGlu8/4 EC50 ratio” value on mGlu4 stood at 8.5.

As to `N[C@@H](CCP(=O)(O)C(O)c1cccc(OCC(=O)O)c1)C(=O)O` (single isomer, unassigned) [LSP3-3108-II], the EC50 came to 29.3 ± 7.2 µM at mGlu8 (setting [3]) and 13 ± 2.9 µM at mGlu4 (setting [3]). In addition, on mGlu4, the “mGlu8/4 EC50 ratio” value amounted to 2.3.

Take `N[C@@H](CCP(=O)(O)C(O)c1cccc(OCC(=O)O)c1)C(=O)O` (single isomer, unassigned) [LSP3-3108-I]: the results for the EC50 on mGlu8 (setting [3]) and at mGlu4 (setting [3]) were 36 ± 18 µM and 4.9 ± 1 µM, respectively. For the same compound, the “mGlu8/4 EC50 ratio” value on mGlu4 is 7.4.

For `COc1ccc(C(O)P(=O)(O)CC[C@H](N)C(=O)O)cc1[N+](=O)[O-]` (stereo partly drawn) [LSP1-2101, (3S)-3-[(((3-amino-3-carboxy)propyl) (hydroxy)phosphinyl)-hydroxymethyl]-4-methoxy-3-nitrobenzene], the EC50 at mGlu8 (setting [1]) was 0.85 ± 0.07 µM; on mGlu8 (setting [3]), 4.4 µM; at mGlu4 (setting [1]) it was 0.5 ± 0.09 µM; at mGlu4 (setting [3]) it was 4.2 µM.

Consider `N[C@@H](CCP(=O)(O)C(O)c1ccc(O)c([N+](=O)[O-])c1)C(=O)O` (stereo partly drawn) [LSP1-2109, (3S)-3-[(((3-amino-3-carboxy)propyl) (hydroxy)phosphinyl)-hydroxymethyl]-4-hydroxy-3-nitrobenzene], for which the EC50 on mGlu7 (values marked IP) was 69 ± 8 µM; at mGlu7 (setting [2]) it was 125 µM; at mGlu6 (values marked IP), 6 ± 0.9 µM; on mGlu6 (setting [2]) it was 6.3 µM.

With `NC(c1cccc([N+](=O)[O-])c1)P(=O)(O)CC[C@H](N)C(=O)O` (stereo partly drawn) [LSP1-3131, (2S)-amino-4-[[amino(3-nitrophenyl)methyl](hydroxy)phosphinyl]butanoic acid], the EC50 amounted to 2.2 ± 0.9 µM on mGlu8 (setting [1]) and 0.54 ± 0.14 µM on mGlu4 (setting [1]). Besides, the “mGlu8/4 EC50 ratio” value on mGlu4 worked out at 4.1.

`N[C@@H](CCP(=O)(O)Cc1cccc([N+](=O)[O-])c1)C(=O)O` [LSP3-1045, (3S)-3-[(((3-ammonium-3-carboxy)propyl) (hydroxy)phosphinyl)-methyl]3-nitrobenzene]: the concentration giving a half-maximal response (EC50) at mGlu8 (setting [1]) is 4.4 ± 2 µM; at mGlu8 (setting [3]) it was 1 µM; at mGlu4 (setting [1]), 0.8 ± 0.2 µM; on mGlu4 (setting [3]), 0.42 µM.

Take `COc1cc(CP(=O)(O)CC[C@H](N)C(=O)O)cc([N+](=O)[O-])c1O.N` [LSP3-2134, (3S)-3-[(((3-ammonium-3-carboxy)propyl)(hydroxy)phosphinyl)-methyl]4-hydroxy-5-methoxy-3-nitrobenzene]: the values for the EC50 on mGlu8 (setting [3]) and at mGlu4 (setting [3]) were 16.6 ± 1.1 µM and 19.7 ± 10.5 µM, respectively. Also, the “mGlu8/4 EC50 ratio” value on mGlu4 was found to be 0.85.

`N[C@@H](CCP(=O)(O)C(O)c1cccc(OCC(=O)O)c1)C(=O)O` (stereo partly shown) [LSP3-3099]: the EC50 on mGlu8 (setting [3]) was 71 ± 25 µM; at mGlu4 (setting [3]), 7.6 ± 2 µM. Also, the “mGlu8/4 EC50 ratio” value on mGlu4 is given as 9.4.

In the case of `COc1cc(C(N)P(=O)(O)CC[C@H](N)C(=O)O)cc([N+](=O)[O-])c1O` (stereo partly drawn) [LSP4-1184, (2S)-amino-4-[[amino(4-hydroxy-5-methoxy-3-nitrophenyl)methyl](hydroxy)phosphoryl]butanoic acid], the EC50 at mGlu8 (setting [3]) was 33 ± 12 µM; at mGlu4 (setting [3]), 13 ± 3.9 µM.
